Measurements from patent US11591323B2, “Muscarinic agonists as non-steroidal and non-opioid analgesics and methods of use thereof” (Barry University, priority 2019, dated 2023).

How the values were obtained:
M4 muscarinic receptor = target: T1, M4 muscarinic receptor (Homo sapiens, UniProt P08173); experiment: accumulation of cAMP at PTX-treated CHO cells expressing M4; format: cell-based; design: host or cells: CHO cells, stably transfected; settings: forskolin-stimulated and basal, in words
T1 sequence (P08173 1-479): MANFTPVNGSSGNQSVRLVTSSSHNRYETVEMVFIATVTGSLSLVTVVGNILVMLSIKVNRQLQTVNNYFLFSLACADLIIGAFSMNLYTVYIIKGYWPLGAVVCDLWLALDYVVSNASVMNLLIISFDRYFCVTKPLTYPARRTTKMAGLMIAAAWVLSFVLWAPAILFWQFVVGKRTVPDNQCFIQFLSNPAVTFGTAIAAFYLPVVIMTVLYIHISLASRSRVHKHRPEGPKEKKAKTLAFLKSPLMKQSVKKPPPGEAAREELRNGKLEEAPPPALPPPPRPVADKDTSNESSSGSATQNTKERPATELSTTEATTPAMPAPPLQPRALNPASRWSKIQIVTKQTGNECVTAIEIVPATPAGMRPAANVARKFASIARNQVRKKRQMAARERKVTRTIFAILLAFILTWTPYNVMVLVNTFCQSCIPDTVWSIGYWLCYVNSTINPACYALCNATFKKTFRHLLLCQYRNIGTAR
Procedure: (§1) To exclude the possibility that activation of the non-preferential Gs pathway was obscured by activation of the preferential Gi/o pathway, accumulation of cAMP was measured in CHO cells expressing M2 or M4 receptors where Gi/o G-proteins were inactivated by pertussis toxin (PTX) treatment (FIG. 4).
Cell culture and membrane preparation: Chinese hamster ovary (CHO) cells stably transfected with the genes of individual human variants of muscarinic receptors were purchased from Missouri S&T cDNA Resource Center (Rolla, Mo., USA). Fresh primary cell culture of smooth muscle cells (SMC) from rat aorta prepared as previously described was kindly provided by Dr. Lucie Bačáková. Primary culture of SMCs was grown to confluency in 75 cm^2 flasks in Dulbecco's modified Eagle's medium supplemented with 10% fetal bovine serum. Up to 6-times, 2 million of cells were sub-cultured. […]
(§2) Measurements of the production of cAMP and inositol phosphates: Levels of second messengers cAMP and inositol phosphates were determined in radiochemical chromatography assays as described previously. […] Samples were applied to alumina columns (1.5 g of alumina per column), washed with 2 ml ammonium acetate (pH=7.0) and eluted from columns with 4 ml ammonium acetate and measured by liquid scintillation spectrometry. […] After separation of water and organic phases, 0.6 ml of water phase was applied to Dowex columns (1.5 g of Dowex per column), washed by 20 ml of 60 mM ammonium formate/5 mM sodium borate buffer and eluted from columns with 4 ml of 1M ammonium formate/0.1 formic acid buffer and measured by liquid scintillation spectrometry.
as §1, with “[…]” for “Gs”, “11). […]” for “4).”

M2 muscarinic receptor = target: T2, M2 muscarinic receptor (Homo sapiens, UniProt P08172); experiment: accumulation of cAMP at PTX-treated CHO cells expressing M2; format: cell-based; design: host or cells: CHO cells, stably transfected; settings: for change in accumulation of cAMP: PTX-treated M2 CHO cells, forskolin-stimulated and basal, in words
T2 sequence (P08172 1-466): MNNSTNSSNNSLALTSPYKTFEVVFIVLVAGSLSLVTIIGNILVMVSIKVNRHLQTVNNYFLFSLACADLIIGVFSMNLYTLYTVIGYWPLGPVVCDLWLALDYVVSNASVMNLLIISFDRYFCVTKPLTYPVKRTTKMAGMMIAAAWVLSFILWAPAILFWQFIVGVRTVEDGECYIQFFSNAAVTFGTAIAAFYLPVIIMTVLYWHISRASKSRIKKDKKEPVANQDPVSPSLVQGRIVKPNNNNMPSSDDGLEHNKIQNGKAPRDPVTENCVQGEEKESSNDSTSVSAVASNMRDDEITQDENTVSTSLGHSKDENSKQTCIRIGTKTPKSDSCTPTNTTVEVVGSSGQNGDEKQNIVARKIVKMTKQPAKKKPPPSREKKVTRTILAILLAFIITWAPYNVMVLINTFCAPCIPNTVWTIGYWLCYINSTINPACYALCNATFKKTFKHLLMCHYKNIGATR
Procedure: as §1
Cell culture and membrane preparation: Chinese hamster ovary (CHO) cells stably transfected with the genes of individual human variants of muscarinic receptors were purchased from Missouri S&T cDNA Resource Center (Rolla, Mo., USA). Fresh primary cell culture of smooth muscle cells (SMC) from rat aorta prepared as previously described was kindly provided by Dr. Lucie Bačáková. Primary culture of SMCs was grown to confluency in 75 cm^2 flasks in Dulbecco's modified Eagle's medium supplemented with 10% fetal bovine serum. Up to 6-times, 2 million of cells were sub-cultured. […] Cells were grown to confluency in 75 cm^2 flasks in Dulbecco's modified Eagle's medium supplemented with 10% fetal bovine serum and 2 million of cells were subcultured in 100 mm Petri dishes. Medium was supplemented with 5 mM butyrate for the last 24 hours of cultivation to increase receptor expression. When needed, cells were cultivated with pertussis toxin at a final concentration of 25 ng/ml for the 24 hours. Cells were detached by mild trypsinization on day 5 after subculture. Detached cells were washed twice in 50 ml of phosphate-buffered saline and 3 min centrifugation at 250×g. […]
as §2
as §1, with “[…]” for “Gs”, “11). […]” for “4).”

Row | Structure (SMILES) | change in accumulation of cAMP (M4 muscarinic receptor) | EC50 in PTX treated cells versus non-treated cells (M2 muscarinic receptor; M2) | change in accumulation of cAMP (M2 muscarinic receptor)
1 | C[N+](C)(C)CCOC(N)=O [carbachol, reference compound] | about two-fold increase | the same | about two-fold increase
2 | C[N+]1(Cc2cccs2)CC=CCC1.[I-] (stereo not shown) [Compound 7A, 1-methyl-1-[(thiophen-2-yl)methyl]-1,2,3,6-tetrahydropyridin-1-ium iodide] | did not change cAMP levels |  | did not change cAMP levels
3 | C1=CCN(Cc2cccs2)CC1.Cl [Compound 6A, 1-[(thiophen-2-yl)methyl]-1,2,3,6-tetrahydropyridin-1-ium chloride] | did not change cAMP levels |  | did not change cAMP levels
